Results reported in patent publication US20040255720A1, “Metal graphite material and production method thereof” (AISIN SEIKI KABUSHIKI KAISHA, priority 2003, published 2004).
Like-named read-outs stand apart in the source and are kept apart here.

Tests used:
[1] = Solubility of each carboxylic acid in methanol; conditions: for solubility in methanol (Max): temperature not given
[2] = Solubilities of each carboxylic acid in water
[3] = 20° C.
[4] = Viscosity of binder chemicals; assay type: physicochemical; conditions: 20° C.
[5] = Thermal decomposition (temperature vs weight, FIG. 3); assay type: physicochemical
Procedure: FIG. 3 illustrates a graph indicating a relationship between temperature and weigh of glycerin and diglycerin.
In addition, it is preferable that the aforementioned chemicals having only a function as a binder is thermally decomposed in carbon dioxide and water when the molded body of the graphite particles is calcinated at 250-350° C. temperature, then such carbon dioxide and water evaporates into the air, in other word, no residue remains due to the thermal decomposition reaction. In such point of view, it is considered that glycerin and diglycerin as glycerin derivative being thermally decomposed at below 350° C. and having a predetermined viscosity are preferable chemicals. Viscosity of the glycerin is 1500 mPa.s at 20° C., and the thermal decomposition starts at 150° C. and finishes at 250° C. Viscosity of the diglycerin is 120 mPa.s at 20° C., and the thermal decomposition starts at 250° C. and finishes at 320° C. In response to an appropriate thickness of the coating film, glycerin or diglycerin can be diluted with methanol and mixed into the solution of carboxylic acid copper. FIG. 3 indicates relationships between temperature and weight of glycerin and diglycerin. Structure 1 indicates a molecular structure of glycerin, and structure 2 indicates a molecular structure of diglycerin. [drawing 1]

[6] = Solubility of carboxylic acid copper in organic solvents; assay type: physicochemical
[7] = Solubility of each carboxylic acid in 1-butanol; assay type: physicochemical; conditions: 20° C.
[8] = Solubility of each carboxylic acid in 1-propanol; assay type: physicochemical; conditions: 20° C.

Compound `Cc1ccccc1C(=O)O` [0-toluic acid] has a solubility in methanol ([1]; 20° C.) of 20 wt % dissolved at 20 °C.
Work on `CC(=O)CC(=O)O` [acetoacetic acid] yielded a solubility in methanol ([1]; 20° C.) of 20 wt % dissolved at 20 °C and a solubility in water ([2]; 20° C.) of 20 wt % dissolved at 20 °C.
Compound `C=CCC(C(=O)O)C(=O)O` [allylic malonic acid] has a solubility in methanol ([1]; 20° C.) of 20 wt % dissolved at 20 °C and a solubility in water ([2]; 20° C.) of 20 wt % dissolved at 20 °C.
In the case of `COc1ccc(C(=O)O)cc1` [anisic acid], the solubility in methanol ([1]; 20° C.) is reported as 20 wt % dissolved at 20 °C.
For `O=C(O)CCCCCCCC(=O)O` [azelaic acid], the solubility in methanol ([1]; 20° C.) was 20 wt % dissolved at 20 °C.
For `[Cl][Cu][Cl]` [copper chloride, cupric chloride], the “Solubility of copper chloride” value ([3]; solvent 1-butanol) was 15.4 g dissolved in saturated solution 100 g at 20 °C, the “Solubility of copper chloride” value ([3]; solvent 1-propanol) was 19.7 g dissolved in saturated solution 100 g at 20 °C and the “Solubility of copper chloride” value ([3]; solvent methanol) was 37 g dissolved in saturated solution 100 g at 20 °C. For the same compound, the “Solubility of copper chloride” value ([3]; solvent water) was 42.3 g dissolved in saturated solution 100 g at 20 °C.
In the case of `OCC(O)COCC(O)CO` (stereo not drawn) [diglycerin], the Viscosity [4] is reported as 120 mPa.s and the “thermal decomposition finishes at (perfectly decomposed into CO2 and H2O)” value [5] is reported as 320 °C.
In the case of `O=C(O)C(O)c1ccccc1` (stereo not drawn) [dl mandelic acid], the solubility in water ([2]; 30° C.) is reported as 37.5 g is dissolved in water 100 g.
With `CCCCCCCCCCCC(=O)O.[Cu]` [dodecanoic acid copper] the “solubility in the methanol compared with butanoic acid copper” value [6] was “lower”.
In the case of `CCCCCCCCCCCC(=O)O` [dodecanoic acid], the solubility in methanol ([1]; 20° C.) is reported as 120 g is dissolved in g is dissolved in methanol 100 g and the “solubility in 1-butanol” value [7] is reported as 83 g is dissolved in solvent 100 g.
With `O=C(O)CCCC(=O)O` [glutaric acid] the solubility in methanol ([1]; 20° C.) was 20 wt % dissolved at 20 °C and the solubility in water ([2]; 30° C.) was 63 g is dissolved in saturated g is dissolved in saturated solution 100 g.
For `OCC(O)CO` [glycerin], the Viscosity [4] was 1500 mPa.s, the Viscosity ([4]; undiluted) was 1500 centipoises and the “thermal decomposition finishes at (perfectly decomposed into CO2 and H2O)” value [5] was 250 °C.
In the case of `O=C(O)c1cccc(C(=O)O)c1` [isophthalic acid], the “solubility in methanol (Max)” value [1] is reported as “Max 1.7 g is dissolved in g is dissolved in methanol 100 g”.
In the case of `CC(=O)CCC(=O)O` [levulinic acid], the solubility in methanol ([1]; 20° C.) is reported as 20 wt % dissolved at 20 °C and the solubility in water ([2]; 20° C.) is reported as 20 wt % dissolved at 20 °C.
For `O=C(O)/C=C\C(=O)O` [maleic acid], the solubility in methanol ([1]; 30° C.) was 70 g is dissolved in g is dissolved in methanol 100 g and the solubility in water ([2]; 30° C.) was 88 g is dissolved in water 100 g at.
With `O=C(O)CC(=O)O` [malonic acid] the solubility in water ([2]; 30° C.) was 63 g is dissolved in saturated g is dissolved in saturated solution 100 g.
Work on `O=C(O)c1ccc(C(=O)O)c(C(=O)O)c1C(=O)O` [mellophanic acid] yielded a solubility in water ([2]; 20° C.) of 20 wt % dissolved at 20 °C.
In the case of `C=C(C)C(=O)O` [methacrylic acid], the “solubility in water” value [2] is reported as “Dissolved at arbitrary ratio”.
For `CCCCCCCCCCCCCC(=O)O` [myristic acid], the “solubility in 1-butanol” value [7] was 28.7 g is dissolved in solvent 100 g.
With `O=C(O)c1ccccc1C(=O)O` [phthalic acid] the “solubility in methanol (Max)” value [1] was “Max 16.4 g is dissolved in g is dissolved in methanol 100 g” and the “solubility in 1-propanol” value [8] was 4.3 g is dissolved in saturated g is dissolved in saturated solution 100 cc.
With `O=C(O)CCCCCC(=O)O` [pimelic acid] the solubility in methanol ([1]; 20° C.) was 20 wt % dissolved at 20 °C.
With `O=C(O)c1ccccc1O` [salicylic acid] the “solubility in 1-propanol” value [8] was 22.3 g is dissolved in saturated g is dissolved in saturated solution 100 cc.
Compound `O=C(O)CCCCCCC(=O)O` [suberic acid] has a solubility in methanol ([1]; 20° C.) of 20 wt % dissolved at 20 °C.
With `O=C(O)c1ccc(C(=O)O)cc1` [terephthalic acid] the “solubility in methanol (Max)” value [1] was “Max 16.9 g is dissolved in g is dissolved in methanol 100 g” and the “solubility in 1-propanol” value [8] was 4.4 g is dissolved in saturated g is dissolved in saturated solution 100 cc.
`O=C(O)c1cc(C(=O)O)cc(C(=O)O)c1` [trimesic acid] showed a solubility in methanol ([1]; 20° C.) of 20 wt % dissolved at 20 °C.
